According to patent publication US20070099841A1, “Prodrugs of T3 and T4 with enhanced bioavailability” (New River Pharmaceuticals Inc., priority 2005, published 2007):
Where “and” joins values, the source holds several entries; their conditions need not be identical. Identical values can stand only once. Like-named read-outs stand apart in the source and are kept apart here. Values belong to the molecule of their own block, whether it stands above or below them.

Tests used:
TSH = assay: Serum TSH after oral administration to hypothyroid rats (chemiluminescent immunoassay); format: in vivo, Sprague-Dawley rats; settings: for TSH levels in response to administration: oral 12 μg/kg T3; for Individual animal TSH: individual animals 1-6, oral 12 μg/kg T3
Description: (§1) T3 sodium, G-T3, V-T3, I-T3, Y-T3, A2-T3, P2-T3, or F2-T3 were administered at equimolar doses to Sprague-Dawley rats (12 μg/kg T3; HED˜120 μg T3 sodium; n=6, per group) that were hypothyroid due to removal of the thyroid gland approximately one week prior to evaluation. Serum was collected at 0 (pre-dose), 1, 2, 4, 6, 8 and 12 hours post-dose and analyzed for total T3 and TSH by chemiluminescent immunoassay (Immulite CIA). […] At 1 hour post dose the mean level of Total T3 was 327.3, 429.5, 432.7, 403.3, 431, and 433.1 ng/ml for G-T3, V-T3, I-T3, Y-T3, P2-T3, and F2-T3 dosed animals respectively as compared to 577 ng/ml for T3 sodium dosed animals. Applicants note that some variation in these values may be present as with A2-T3 (FIGS. 15 and 16).

[1] = set-up: species or system Sprague-Dawley rats; settings: rat, in vivo
Description: Compounds were tested in Sprague-dawley rats (˜250 g). Defined doses were delivered as oral solutions in 0.5% sodium bicarbonate buffer with T3 sodium salt containing 12 mcgT3/kg or triiodothyronine composition containing the equivalent amount of T3. Rats were dosed immediately following 0 hour serum collection. Serum was collected from rats at 2, 4, 6, 9, 12 and 24 hours after capsule delivery. Total serum T3 concentrations were determined by ELISA using a commercially available kit (Total Triiodothyronine (total T3) ELISA KIT, product #1700, ALPHA DIAGNOSTIC, San Antonio, Tex.). Total serum T4 concentrations were determined by ELISA using a commercially available kit (Total Thyronine (Total T4) ELISA KIT, product #1100, ALPHA DIAGNOSTIC, San Antonio, Tex.).
The general procedures described above were employed for the experimental data described below. These procedures are subject to minor variations in timing and weight of rats, etc.
as §1

[2] = 0 h (pre-dose), mean n=6, oral 12 μg/kg T3
[3] = 1 h, mean n=6, oral 12 μg/kg T3
[4] = 2 h, mean n=6, oral 12 μg/kg T3
[5] = 4 h, mean n=6, oral 12 μg/kg T3
[6] = 6 h, mean n=6, oral 12 μg/kg T3
[7] = 8 h, mean n=6, oral 12 μg/kg T3
[8] = 12 h, mean n=6, oral 12 μg/kg T3

Total T3 AUC, % (of T3) [1]: 92.3% | Total T3Δ dAUC, % (of T3) [1]: 97.9% | Variability of T3 absorption compared with T3 sodium [1]: decreased variability of T3 absorption | mean level of Total T3 at 1 hour post dose ([1]; po): 431 ng/mL
SMILES: O=C(O)[C@H](Cc1cc(I)c(Oc2ccc(O)c(I)c2)c(I)c1)NC(=O)[C@@H]1CCCN1C(=O)[C@@H]1CCCN1 [P2-T3]
TSH, mean (TSH; [2]): 2.988 μIU | TSH, mean (TSH; [3]): 2.438 μIU | TSH, mean (TSH; [4]): 1.363 μIU | TSH, mean (TSH; [5]): 0.346 μIU | TSH, mean (TSH; [6]): 0.21 μIU | TSH, mean (TSH; [7]): 0.189 μIU | TSH, mean (TSH; [8]): 0.735 μIU | TSH levels in response to administration (TSH): decreased rapidly

Tmax, % T3 ([1]; Sprague-Dawley): 100% | Tmax, Low − High ([1]; Sprague-Dawley): 1 − 6 | Total T3 AUC, % (of T3) ([1]; Sprague-Dawley): 100% | Total T3 AUClast, % T3 ([1]; Sprague-Dawley): 100% | Total T3 Cmax, % T3 ([1]; Sprague-Dawley): 100% | Total T3Δ AUClast, % T3 ([1]; Sprague-Dawley): 100% | Total T3Δ Cmax, % T3 ([1]; Sprague-Dawley): 100% | Total T3Δ dAUC, % (of T3) ([1]; Sprague-Dawley): 100% | Total T3 Tmax ([1]; Sprague-Dawley, po, 12 ug/kg): 3.2 h | Total T3 Tmax, mean ([1]; Sprague-Dawley, po, 12 ug/kg): 3.2 h | Total T3Δ Tmax, mean ([1]; Sprague-Dawley, po, 12 ug/kg): 3.2 h | mean level of Total T3 at 1 hour post dose ([1]; Sprague-Dawley, po, 1 h): 577 ng/mL | Total T3 AUClast, Low − High [1]: 4292 − 6421 ng · h/dL | Total T3 Cmax, Low − High [1]: 484 − 915 ng/dL | Total T3Δ AUClast, Low − High [1]: 3688 − 5526 ng · h/dL | Total T3Δ Cmax, Low − High [1]: 444 − 875 ng/dL | Total T3 AUC ([1]; po, 12 ug/kg): 5171
SMILES: N[C@@H](Cc1cc(I)c(Oc2ccc(O)c(I)c2)c(I)c1)C(=O)O [T3 sodium, 3,3′,5-triiodo-L-thyronine]
Individual animal TSH (TSH; 0 h (pre-dose)): 1.840 μIU and 2.296 μIU and 2.088 μIU and 2.480 μIU and 1.884 μIU and 2.572 μIU | TSH, mean (TSH; [2]): 2.193 μIU | Individual animal TSH (TSH; 1 h): 1.680 μIU and 1.796 μIU and 1.924 μIU and 2.580 μIU and 1.868 μIU and 2.344 μIU | TSH, mean (TSH; [3]): 2.032 μIU | Individual animal TSH (TSH; 2 h): 1.264 μIU and 1.284 μIU and 0.920 μIU and 1.116 μIU and 1.080 μIU and 1.180 μIU | TSH, mean (TSH; [4]): 1.141 μIU | Individual animal TSH (TSH; 4 h): 0.240 μIU and 0.252 μIU (2×) and 0.204 μIU and 0.200 μIU and 0.312 μIU | TSH, mean (TSH; [5]): 0.243 μIU | Individual animal TSH (TSH; 6 h): 0.116 μIU and 0.140 μIU and 0.136 μIU and 0.120 μIU (2×) and 0.160 μIU | TSH, mean (TSH; [6]): 0.132 μIU | Individual animal TSH (TSH; 8 h): 0.080 μIU and 0.156 μIU and 0.152 μIU and 0.132 μIU and 0.108 μIU and 0.188 μIU | TSH, mean (TSH; [7]): 0.136 μIU | Individual animal TSH (TSH; 12 h): 0.120 μIU and 0.260 μIU and 0.256 μIU and 0.416 μIU and 0.300 μIU | TSH, mean (TSH; [8]): 0.270 μIU | TSH, mean (TSH; 12 h, mean n=6, oral 12 μg/kg T3, listed as T3): 0.27 μIU | TSH levels in response to administration (TSH): decreased rapidly

Total T3 AUC, % (of T3) [1]: 94.9% | Total T3Δ dAUC, % (of T3) [1]: 98.6% | Variability of T3 absorption compared with T3 sodium [1]: decreased variability of T3 absorption | mean level of Total T3 at 1 hour post dose ([1]; po): 429.5 ng/mL
SMILES: CC(C)[C@H](N)C(=O)N[C@@H](Cc1cc(I)c(Oc2ccc(O)c(I)c2)c(I)c1)C(=O)O [V-T3]
TSH, mean (TSH; [2]): 2.309 μIU | TSH, mean (TSH; [3]): 2.212 μIU | TSH, mean (TSH; [4]): 1.123 μIU | TSH, mean (TSH; [5]): 0.282 μIU | TSH, mean (TSH; [6]): 0.174 μIU | TSH, mean (TSH; [7]): 0.175 μIU | TSH, mean (TSH; [8]): 0.54 μIU | TSH levels in response to administration (TSH): decreased rapidly

Total T3 AUC, % (of T3) [1]: 95.5% | Total T3Δ dAUC, % (of T3) [1]: 100.4% | Variability of T3 absorption compared with T3 sodium [1]: decreased variability of T3 absorption | mean level of Total T3 at 1 hour post dose ([1]; po): 403.3 ng/mL
SMILES: N[C@@H](Cc1ccc(O)cc1)C(=O)N[C@@H](Cc1cc(I)c(Oc2ccc(O)c(I)c2)c(I)c1)C(=O)O [Y-T3]
TSH, mean (TSH; [2]): 2.595 μIU | TSH, mean (TSH; [3]): 2.648 μIU | TSH, mean (TSH; [4]): 1.601 μIU | TSH, mean (TSH; [5]): 0.471 μIU | TSH, mean (TSH; [6]): 0.27 μIU | TSH, mean (TSH; [7]): 0.221 μIU | TSH, mean (TSH; [8]): 0.651 μIU | TSH levels in response to administration (TSH): decreased rapidly
